Measured values from the supplement of paper PMC10307832.

Assays:
Assay in all cases: relative viability (nuclei count vs DMSO), 5 days (fraction); higher = more cells survive
[1] = tested on: ABC-1
In short: (§1)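 After 5 days of treatment, lung cancer cells in 1536-well plates were fixed and stained in a single step (final 0.05% Triton X-100, 1% formaldehyde, 1 ug/ml Hoechst) and their nuclei counted on 4× images. Treatment had been applied by pin tool the day after seeding as one drug alone or as a fixed anchor-drug dose with five library-drug doses (not always all listed) in √10 steps. Relative viability is the nuclei count of treated wells divided by that of vehicle wells, and values are medians of duplicate plates.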

[2] = tested on: COR-L 105
In short: as §1

[3] = tested on: ChaGo-K-1
In short: as §1

[4] = tested on: EMC-BAC-2
In short: as §1

[5] = tested on: EPLC-272H
In short: as §1

[6] = tested on: HCC-15
In short: as §1

[7] = tested on: HCC-78
In short: as §1

[8] = tested on: HOP-62
In short: as §1

[9] = tested on: LXF-289
In short: as §1

[10] = tested on: NCI-H1666
In short: as §1

[11] = tested on: NCI-H1755
In short: as §1

[12] = tested on: NCI-H1915
In short: as §1

[13] = tested on: NCI-H1975
In short: as §1

[14] = tested on: NCI-H2023
In short: as §1

[15] = tested on: NCI-H2085
In short: as §1

[16] = tested on: NCI-H2126
In short: as §1

[17] = tested on: NCI-H3122
In short: as §1

[18] = tested on: NCI-H322M
In short: as §1

[19] = tested on: NCI-H358
In short: as §1

[20] = tested on: NCI-H441
In short: as §1

[21] = tested on: UMC-11
In short: as §1

`COc1cc2nccc(Oc3ccc(NC(=O)Nc4cc(C)on4)c(Cl)c3)c2cc1OC` [Tivozanib] + Nc1ncn([C@H]2C[C@H](O)[C@@H](CO)O2)c(=O)n1 [Decitabine] (partner 2 µM) showed a relative viability ([1]; first compound 0.005 µM) of 0.986, a relative viability ([1]; first compound 0.01581 µM) of 1.01 and a relative viability ([1]; first compound 0.05 µM) of 1.15. The relative viability ([1]; first compound 0.1581 µM) was 0.868, the relative viability ([1]; first compound 0.5 µM) was 0.694 and the relative viability ([2]; first compound 0.005 µM) was 0.677. It also gave a relative viability ([2]; first compound 0.01581 µM) of 0.638, a relative viability ([2]; first compound 0.05 µM) of 0.731 and a relative viability ([2]; first compound 0.1581 µM) of 0.627. The relative viability ([2]; first compound 0.5 µM) was 0.628, the relative viability ([3]; first compound 0.005 µM) was 0.458 and the relative viability ([3]; first compound 0.01581 µM) was 0.498. For the same molecule, the relative viability ([3]; first compound 0.05 µM) was 0.515, the relative viability ([3]; first compound 0.1581 µM) was 0.543 and the relative viability ([3]; first compound 0.5 µM) was 0.489. For the same molecule, the relative viability ([4]; first compound 0.005 µM) was 1.02, the relative viability ([4]; first compound 0.01581 µM) was 0.977 and the relative viability ([4]; first compound 0.05 µM) was 0.952. For the same molecule, the relative viability ([4]; first compound 0.1581 µM) was 0.927, the relative viability ([4]; first compound 0.5 µM) was 0.975 and the relative viability ([5]; first compound 0.005 µM) was 0.342. For the same molecule, the relative viability ([5]; first compound 0.01581 µM) was 0.416, the relative viability ([5]; first compound 0.05 µM) was 0.391 and the relative viability ([5]; first compound 0.1581 µM) was 0.409. It also gave a relative viability ([5]; first compound 0.5 µM) of 0.365, a relative viability ([6]; first compound 0.005 µM) of 0.613 and a relative viability ([6]; first compound 0.01581 µM) of 0.612. For the same molecule, the relative viability ([6]; first compound 0.05 µM) was 0.641, the relative viability ([6]; first compound 0.1581 µM) was 0.727 and the relative viability ([6]; first compound 0.5 µM) was 0.639. For the same molecule, the relative viability ([7]; first compound 0.005 µM) was 0.685, the relative viability ([7]; first compound 0.01581 µM) was 0.807 and the relative viability ([7]; first compound 0.05 µM) was 0.733. The relative viability ([7]; first compound 0.1581 µM) was 0.651, the relative viability ([7]; first compound 0.5 µM) was 0.667 and the relative viability ([8]; first compound 0.005 µM) was 0.247. For the same molecule, the relative viability ([8]; first compound 0.01581 µM) was 0.187, the relative viability ([8]; first compound 0.05 µM) was 0.2 and the relative viability ([8]; first compound 0.1581 µM) was 0.256. It also gave a relative viability ([8]; first compound 0.5 µM) of 0.223, a relative viability ([9]; first compound 0.005 µM) of 0.331 and a relative viability ([9]; first compound 0.01581 µM) of 0.363. The relative viability ([9]; first compound 0.05 µM) was 0.35, the relative viability ([9]; first compound 0.1581 µM) was 0.346 and the relative viability ([9]; first compound 0.5 µM) was 0.404. It also gave a relative viability ([10]; first compound 0.005 µM) of 0.664, a relative viability ([10]; first compound 0.01581 µM) of 0.683 and a relative viability ([10]; first compound 0.05 µM) of 0.784. For the same molecule, the relative viability ([10]; first compound 0.1581 µM) was 0.665, the relative viability ([10]; first compound 0.5 µM) was 0.643 and the relative viability ([11]; first compound 0.005 µM) was 0.716. For the same molecule, the relative viability ([11]; first compound 0.01581 µM) was 0.74, the relative viability ([11]; first compound 0.05 µM) was 0.688 and the relative viability ([11]; first compound 0.1581 µM) was 0.744. The relative viability ([11]; first compound 0.5 µM) was 0.704, the relative viability ([12]; first compound 0.005 µM) was 0.281 and the relative viability ([12]; first compound 0.01581 µM) was 0.281. For the same molecule, the relative viability ([12]; first compound 0.05 µM) was 0.253, the relative viability ([12]; first compound 0.1581 µM) was 0.293 and the relative viability ([12]; first compound 0.5 µM) was 0.268. The relative viability ([13]; first compound 0.005 µM) was 0.36, the relative viability ([13]; first compound 0.01581 µM) was 0.414 and the relative viability ([13]; first compound 0.05 µM) was 0.352. For the same molecule, the relative viability ([13]; first compound 0.1581 µM) was 0.362, the relative viability ([13]; first compound 0.5 µM) was 0.405 and the relative viability ([14]; first compound 0.005 µM) was 0.223. It also gave a relative viability ([14]; first compound 0.01581 µM) of 0.219, a relative viability ([14]; first compound 0.05 µM) of 0.24 and a relative viability ([14]; first compound 0.1581 µM) of 0.242. For the same molecule, the relative viability ([14]; first compound 0.5 µM) was 0.213, the relative viability ([15]; first compound 0.005 µM) was 0.536 and the relative viability ([15]; first compound 0.01581 µM) was 0.609. It also gave a relative viability ([15]; first compound 0.05 µM) of 0.619, a relative viability ([15]; first compound 0.1581 µM) of 0.578 and a relative viability ([15]; first compound 0.5 µM) of 0.562. It also gave a relative viability ([16]; first compound 0.005 µM) of 0.645, a relative viability ([16]; first compound 0.01581 µM) of 0.584 and a relative viability ([16]; first compound 0.05 µM) of 0.612. For the same molecule, the relative viability ([16]; first compound 0.1581 µM) was 0.602, the relative viability ([16]; first compound 0.5 µM) was 0.578 and the relative viability ([17]; first compound 0.005 µM) was 0.462. For the same molecule, the relative viability ([17]; first compound 0.01581 µM) was 0.427, the relative viability ([17]; first compound 0.05 µM) was 0.429 and the relative viability ([17]; first compound 0.1581 µM) was 0.401. The relative viability ([17]; first compound 0.5 µM) was 0.563, the relative viability ([18]; first compound 0.005 µM) was 0.632 and the relative viability ([18]; first compound 0.01581 µM) was 0.55. It also gave a relative viability ([18]; first compound 0.05 µM) of 0.762, a relative viability ([18]; first compound 0.1581 µM) of 0.656 and a relative viability ([18]; first compound 0.5 µM) of 0.686. For the same molecule, the relative viability ([19]; first compound 0.005 µM) was 0.187, the relative viability ([19]; first compound 0.01581 µM) was 0.217 and the relative viability ([19]; first compound 0.05 µM) was 0.215. The relative viability ([19]; first compound 0.1581 µM) was 0.222, the relative viability ([19]; first compound 0.5 µM) was 0.206 and the relative viability ([20]; first compound 0.005 µM) was 0.262. The relative viability ([20]; first compound 0.01581 µM) was 0.25, the relative viability ([20]; first compound 0.05 µM) was 0.218 and the relative viability ([20]; first compound 0.1581 µM) was 0.281. For the same molecule, the relative viability ([20]; first compound 0.5 µM) was 0.224, the relative viability ([21]; first compound 0.005 µM) was 0.59 and the relative viability ([21]; first compound 0.01581 µM) was 0.595. The relative viability ([21]; first compound 0.05 µM) was 0.657, the relative viability ([21]; first compound 0.1581 µM) was 0.478 and the relative viability ([21]; first compound 0.5 µM) was 0.425.
